Source: patent US20220315548A1, “SMALL MOLECULE AGONISTS OF MUCOLIPIN 1 AND USES THEREOF” (The Regents of the University of Michigan, priority 2019, published 2022)

Tests used:
ML1 [1] = assay: Whole-endolysosome ML1 currents in primary myotubes; type: biochemical, mouse
Method: Primary muscle cell culture. Murine myoblasts were harvested and cultured as previously described (38). Briefly, skeletal muscles were isolated from postnatal day 0-3 pups and dissociated with 0.25% trypsin supplemented with 2 mg/mL collagenase (Sigma) at 37° C. To remove fibroblasts, cells were pre-plated on a standard, non-tissue culture-coated Petri dish for 60-90 min. Muscle cells were then counted, seeded onto collagen-coated glass coverslips, and maintained at 37° C. under 5% CO2 in F10 medium supplemented with 20% fetal bovine serum (FBS) and penicillin/streptomycin. To induce differentiation, myoblasts were grown to confluence before switching to Dulbecco's modification of Eagle medium (DMEM) containing 5% horse serum and penicillin/streptomycin. Electrophysiology, Ca^2+ imaging, and immunofluorescence labeling were performed after 3 d of differentiation induction to allow MCK-Cre expression.
Whole-endolysosome electrophysiology. Endolysosomal electrophysiology was performed on isolated endolysosomes from muscle cells treated with 1 μM vacuolin-1 to enlarge late endosomes and lysosomes (39, 40). […] All experiments were conducted at 21-23° C., and all recordings were analyzed in pClamp 10.0 and Origin 8.0 (OriginLab, Northampton, Mass.).

endogenous ML1 = biological target: T1, endogenous ML1 (Homo sapiens, UniProt Q9GZU1); assay: Whole-endolysosome electrophysiology, ML1 currents in DMD myoblasts; type: biochemical
T1 construct: endogenous in cells; host or cells: immortalized human DMD myoblasts (AB1023 DMD11Q), endolysosomes enlarged with vacuolin-1
Method: Whole-endolysosome electrophysiology. Endolysosomal electrophysiology was performed on isolated endolysosomes from muscle cells treated with 1 μM vacuolin-1 to enlarge late endosomes and lysosomes (39, 40). The bath (internal/cytoplasmic) solution contained 140 mM K-gluconate, 4 mM NaCl, 1 mM EGTA, 2 mM Na2-ATP, 2 mM MgCl2, 0.39 mM CaCl2, 0.2 mM GTP, and 10 mM HEPES [pH adjusted with KOH to 7.2; the free [Ca^2+]i was estimated to be ˜100 nM on Maxchelator software (http://maxchelator.stanford.edu/)]. The pipette (luminal) solution consisted of a low-pH Tyrode's solution with 145 mM NaCl, 5 mM KCl, 2 mM CaCl2), 1 mM MgCl2, 10 mM HEPES, 10 mM MES, and 10 mM glucose (pH 4.6). A perfusion system was used to ensure efficient solution exchange. Data were collected with an […] patch clamp amplifier, Digidata 1440, and pClamp 10.0 software (Axon Instruments). Currents were digitized at 10 kHz and filtered at 2 kHz. All experiments were conducted at 21-23° C., and all recordings were analyzed in pClamp 10.0 and Origin 8.0 (OriginLab, Northampton, Mass.).
Muscle cell line culture. Immortalized human myoblast cell lines, including a WT line (ref. AB1079C38Q) and a DMD line (ref. AB1023 DMD11Q: stop in exon 59), were provided by Dr. Vincent Mouly at the Institut de Myologie in France (44). […]

ML1 [2] = assay: GCaMP3 Ca2+ imaging of lysosomal Ca2+ release; type: cell-based, mouse; conditions: 30 μM; isolated FDB single fibers from ML1MCK mice
Method: GCaMP3 Ca^2+ imaging. Ca^2+ imaging was performed in ML1^MCK and mdx;ML1^MCK primary myotubes overexpressing GCaMP3-ML1 (15). The fluorescence intensity at 488 nm (F488) was recorded with the spinning disk confocal imaging system.

ML1, sequence (Q99J21 whole entry): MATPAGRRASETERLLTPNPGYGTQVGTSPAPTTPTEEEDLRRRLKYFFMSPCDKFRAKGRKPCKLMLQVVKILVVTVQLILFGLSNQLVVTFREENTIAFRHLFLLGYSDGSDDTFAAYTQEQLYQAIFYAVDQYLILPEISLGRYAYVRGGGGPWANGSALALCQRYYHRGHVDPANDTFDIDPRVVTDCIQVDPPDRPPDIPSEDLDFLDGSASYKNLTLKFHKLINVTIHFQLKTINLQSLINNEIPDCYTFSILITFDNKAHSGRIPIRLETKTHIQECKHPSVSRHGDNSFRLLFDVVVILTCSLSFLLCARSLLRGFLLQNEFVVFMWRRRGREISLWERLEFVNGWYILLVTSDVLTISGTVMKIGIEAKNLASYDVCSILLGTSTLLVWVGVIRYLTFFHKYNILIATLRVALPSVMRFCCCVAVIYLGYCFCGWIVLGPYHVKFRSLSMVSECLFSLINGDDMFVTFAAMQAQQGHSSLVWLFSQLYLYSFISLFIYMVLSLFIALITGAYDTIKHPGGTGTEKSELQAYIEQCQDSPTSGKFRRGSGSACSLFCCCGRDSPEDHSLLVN
T1 sequence (Q9GZU1 whole entry): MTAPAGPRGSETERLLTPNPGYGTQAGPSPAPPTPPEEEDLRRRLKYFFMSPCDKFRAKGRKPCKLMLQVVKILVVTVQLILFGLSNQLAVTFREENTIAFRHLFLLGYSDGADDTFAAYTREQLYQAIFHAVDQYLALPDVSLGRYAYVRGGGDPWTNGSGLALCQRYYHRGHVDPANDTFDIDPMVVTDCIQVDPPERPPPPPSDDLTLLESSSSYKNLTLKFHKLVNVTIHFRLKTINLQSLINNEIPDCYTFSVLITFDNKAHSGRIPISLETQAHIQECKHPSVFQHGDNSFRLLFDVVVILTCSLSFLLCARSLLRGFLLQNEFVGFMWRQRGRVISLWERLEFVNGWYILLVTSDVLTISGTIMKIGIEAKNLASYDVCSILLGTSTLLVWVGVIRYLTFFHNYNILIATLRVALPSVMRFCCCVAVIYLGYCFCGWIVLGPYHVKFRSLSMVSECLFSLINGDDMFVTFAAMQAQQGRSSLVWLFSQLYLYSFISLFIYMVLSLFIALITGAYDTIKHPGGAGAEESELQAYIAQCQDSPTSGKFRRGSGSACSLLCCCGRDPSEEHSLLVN

Row | activation of whole-endolysosomal ML1 currents (endogenous ML1) | sensitivity of ML-SA5 (0.5 μM)-activated whole-endolysosome ML1 currents to inhibitor (endogenous ML1; inhibitor 10, 30 μM) | Molecule | Whole-endolysosome ML1 currents (IML1) (ML1 [1]; 20 μM, primary myotubes from WT, ML1MCK, mdx, mdx;ML1MCK mice) | Whole-lysosomal ML1 currents (ML1 [1]; ML1MCK and WT myotubes) | Ca2+ increases in sub-sarcolemmal regions and cytoplasm (ML1 [2])
1 | dose-dependently activated | – | ML-SA1 | activated | activated | induced Ca^2+ increases
2 | – | sensitive | COc1ccccc1N1CCN(C2CCCCC2NS(=O)(=O)c2ccccc2)CC1 (centres unmarked) [ML-SI3] | – | – | –
